In patent US20250144067A1, “PERSONALIZED STARVATION THERAPY FOR CANCER” (Faeth Therapeutics, Inc., priority 2021, published 2025):
Where a name gives a salt, the structure may show the parent alone. Read-outs that look alike come from different tables or passages of the source. Ends that are not written are not given here.

Assays:
[1] = test system: NCI-H292 lung cancer cells; assay: FDA drug screening, complete media vs cholesterol-free media without statin (TABLE 1); assay type: cell-based, human
[2] = test system: NCI-H292 lung cancer cells; assay: FDA drug screening, complete media vs cholesterol-free media with simvastatin (TABLE 2); assay type: cell-based, human
[3] = Complete minus Cholesterol-free, >0 enhanced anti-cancer activity, about 0 neutral, <0 antagonist
[4] = NCI-H292 cells, cholesterol-free media without statin, FDA drug library screen
[5] = NCI-H292 cells, complete media, FDA drug library screen
[6] = NCI-H292 cells, drug in cholesterol-free media with simvastatin 0.04 μM
[7] = NCI-H292 cells, drug in complete media
[8] = complete media vs cholesterol-free media + simvastatin (0.04 μM), >0 enhanced anti-cancer activity, about 0 neutral, <0 antagonist
[9] = complete vs cholesterol-free media, >0 enhanced anti-cancer activity, about 0 neutral, <0 antagonist
[10] = NCI-H292 cells, complete media, cell growth value in FDA drug screen
[11] = complete media minus cholesterol-free media + simvastatin, >0 enhanced anti-cancer activity, about 0 neutral, <0 antagonist
[12] = Complete minus Cholesterol-free, greater than 0 enhanced anti-cancer activity, about 0 neutral, below 0 antagonist
[13] = NCI-H292 cells, FDA drug library screen, cholesterol-free media without statin
[14] = NCI-H292 cells, FDA drug library screen, complete media
[15] = NCI-H292 cells, FDA drug library screen, cholesterol-free media with simvastatin 0.04 μM
[16] = complete media minus cholesterol-free media + simvastatin (0.04 μM), >0 enhanced anti-cancer activity, about 0 neutral, <0 antagonist
[17] = NCI-H292 cells, cholesterol-free media without statin
[18] = NCI-H292 cells, FDA library drug in cholesterol-free media with simvastatin 0.04 μM
[19] = NCI-H292 cells, FDA library drug in complete media
[20] = Complete minus Cholesterol-free, […]
[21] = complete media minus cholesterol-free media + simvastatin, […]
[22] = NCI-H292 cells, cholesterol-free media with simvastatin 0.04 μM, FDA drug library screen (TABLE 2)
[23] = NCI-H292 cells, complete media, FDA drug library screen (TABLE 2)
[24] = complete vs cholesterol-free media, greater than 0 enhanced anti-cancer activity, about 0 neutral, below 0 antagonists
[25] = NCI-H292 cells, cholesterol-free media with simvastatin 0.04 μM, cell growth value in FDA drug screen

CC1(O)CCC(C(C)(C)O)CC1 (stereo not shown) [Terpin (hydrate)]
Difference [1, 3]: 0.06
Cholesterol-free [1, 4]: 0.8684
Complete [1, 5]: 0.9288
Cholesterol-free media + simvastatin (0.04 μM) [2, 6]: 1.474
Complete Media [2, 7]: 1.21
Difference [2, 8]: −0.26

CCCCc1oc2ccc(NS(C)(=O)=O)cc2c1C(=O)c1ccc(OCCCN(CCCC)CCCC)cc1 [Dronedarone (Hydrochloride)]
Cholesterol-free [1, 4]: 0.4604
Difference [1, 9]: 0.28
Complete Media [2, 10]: 0.8231
Difference [2, 11]: 0.06

CC(=O)Nc1c(I)c(NC(C)=O)c(I)c(C(=O)O)c1I [Diatrizoic acid]
Difference [1, 12]: −0.07
Cholesterol-free [1, 13]: 1.077
Complete [1, 14]: 1.004
Cholesterol-free media + simvastatin (0.04 μM) [2, 15]: 1.834
Difference [2, 16]: −1.00

CN1CCCC(CC2c3ccccc3Sc3ccccc32)C1 (stereo not shown) [Metixene hydrochloride hydrate]
Difference [1, 3]: −0.25
Cholesterol-free [1, 17]: 1.293
Complete ([1]; NCI-H292 cells, complete media): 1.044
Cholesterol-free media + simvastatin (0.04 μM) [2, 6]: 1.206
Complete Media [2, 7]: 1.036
Difference [2, 8]: −0.17

O=c1ccn([C@@H]2O[C@H](CO)[C@@H](O)[C@H]2O)c(=O)[nH]1 [Uridine]
Difference [1, 3]: −0.19
Cholesterol-free [1, 17]: 1.404
Complete ([1]; NCI-H292 cells, complete media): 1.215
Cholesterol-free media + simvastatin (0.04 μM) [2, 18]: 1.294
Complete Media [2, 19]: 1.006
Difference [2, 8]: −0.29

CN(C)CCOCC(=O)NC12CC3CC(CC(C3)C1)C2 [Tromantadine (hydrochloride)]
Difference [1, 3]: −0.20
Cholesterol-free [1, 17]: 0.9414
Complete ([1]; NCI-H292 cells, complete media): 0.7414
Cholesterol-free media + simvastatin (0.04 μM) [2, 6]: 1.251
Complete Media [2, 7]: 1.005
Difference [2, 8]: −0.25

C[N+](C)(CC(=O)Nc1ccccc1)CC(=O)Nc1ccccc1.[Cl-] [Carcainium (chloride)]
Difference [1, 20]: 0.01
Cholesterol-free [1, 4]: 0.9985
Complete [1, 5]: 1.004
Cholesterol-free media + simvastatin (0.04 μM) ([2]; NCI-H292 cells, cholesterol-free media with simvastatin 0.04 μM, […]): 1.019
Complete Media ([2]; NCI-H292 cells, complete media, […]): 1.155
Difference [2, 21]: 0.14

Cl.NCCCC[C@H](N)C(=O)O [L-Lysine hydrochloride]
Difference [1, 20]: −0.25
Cholesterol-free [1, 17]: 1.006
Complete ([1]; NCI-H292 cells, complete media): 0.7519
Cholesterol-free media + simvastatin (0.04 μM) [2, 15]: 1.192
Complete Media [2, 14]: 1.079
Difference ([2]; complete media vs cholesterol-free media + simvastatin (0.04 μM), […]): −0.11

Angiotensin II human (acetate) (DRVYIHPF; also: acetate salt; UniProt P01019 25-32, looked up)
Difference [1, 20]: −0.23
Cholesterol-free [1, 17]: 0.9412
Complete ([1]; NCI-H292 cells, complete media): 0.7158
Complete Media [2, 14]: 1.355
Difference [2, 21]: 0.21

C#Cc1cccc(Nc2ncnc3cc4c(cc23)OCCOCCOCCO4)c1 [Icotinib (Hydrochloride)]
Difference [1, 3]: 0.05
Cholesterol-free [1, 4]: 0.2697
Complete [1, 5]: 0.324
Cholesterol-free media + simvastatin (0.04 μM) [2, 22]: 0.5866
Complete Media [2, 23]: 0.5343
Difference [2, 16]: −0.05

C[N+](C)(C)C[C@H](O)CC(=O)[O-] [L-Carnitine]
Difference [1, 12]: −0.11
Cholesterol-free [1, 13]: 1.053
Complete [1, 14]: 0.9402
Cholesterol-free media + simvastatin (0.04 μM) [2, 15]: 0.9127
Complete Media [2, 14]: 0.8221
Difference [2, 8]: −0.09

Adenine (hemisulfate)
Cholesterol-free [1]: 1.657
Complete [1]: 0.9172
Difference [1]: −0.74
Cholesterol-free media + simvastatin (0.04 μM) [2]: 1.503
Complete Media [2]: 1.604
Difference [2]: 0.10

CCCC[C@H](C)C[C@H](O)/C=C/[C@H]1[C@H](O)CC(=O)[C@@H]1CCCC/C=C/C(=O)O [Limaprost]
Cholesterol-free [1, 17]: 1.4
Complete ([1]; NCI-H292 cells, complete media): 0.949
Difference [1, 24]: −0.45
Cholesterol-free media + simvastatin (0.04 μM) [2, 6]: 1.214
Complete Media [2, 7]: 0.9724
Difference [2, 8]: −0.24

Cc1c(C(=O)NN2CCCCC2)nn(-c2ccc(Cl)cc2Cl)c1-c1ccc(Cl)cc1 [Rimonabant (Hydrochloride)]
Cholesterol-free [1, 17]: 1.291
Complete ([1]; NCI-H292 cells, complete media): 0.882
Difference [1, 24]: −0.41
Cholesterol-free media + simvastatin (0.04 μM) [2, 25]: 0.8204
Complete Media [2, 10]: 0.8385
Difference [2, 11]: 0.02

CC(N)C12CC3CC(CC(C3)C1)C2 (stereo not shown) [Rimantadine (hydrochloride)]
Cholesterol-free [1, 4]: 0.8509
Complete [1, 5]: 1.649
Difference [1, 9]: 0.80
Cholesterol-free media + simvastatin (0.04 μM) [2, 15]: 0.9474
Complete Media [2, 14]: 0.8656
Difference [2, 8]: −0.08

CC(C)(C)NC[C@H](O)COc1cccc2c1CCCC2=O [Levobunolol (hydrochloride)]
Cholesterol-free [1, 4]: 0.4904
Complete [1, 5]: 1.134
Difference [1, 9]: 0.64
Cholesterol-free media + simvastatin (0.04 μM) [2, 22]: 0.9864
Complete Media [2, 23]: 0.921
Difference [2, 16]: −0.07

CCC(=O)O[C@@H]1CC(=O)O[C@H](C)C/C=C/C=C/[C@H](O)[C@H](C)C[C@H](CC=O)[C@H](O[C@@H]2O[C@H](C)[C@@H](O[C@H]3C[C@@](C)(O)[C@@H](OC(=O)CC)[C@H](C)O3)[C@H](N(C)C)[C@H]2O)[C@H]1OC [Midecamycin]
Cholesterol-free [1, 4]: 1.021
Complete [1, 5]: 1.536
Difference [1, 9]: 0.52
Cholesterol-free media + simvastatin (0.04 μM) [2, 18]: 1.255
Complete Media [2, 19]: 0.9149
Difference [2, 8]: −0.34

CC(=O)[C@H]1CC[C@H]2[C@@H]3C[C@H](C)C4=CC(=O)CC[C@]4(C)[C@H]3[C@@H](O)C[C@]12C [Medrysone]
Cholesterol-free [1, 4]: 0.895
Complete [1, 5]: 1.283
Difference [1, 9]: 0.39
Cholesterol-free media + simvastatin (0.04 μM) [2, 6]: 1.51
Complete Media [2, 7]: 1.254
Difference [2, 8]: −0.26

O=c1[nH]cnc2c1ncn2[C@H]1CC[C@@H](CO)O1 [Didanosine]
Difference [1, 3]: −0.23
Cholesterol-free [1, 17]: 0.9969
Complete ([1]; NCI-H292 cells, complete media): 0.7675
Cholesterol-free media + simvastatin (0.04 μM) [2, 15]: 0.9758
Complete Media [2, 14]: 0.8636
Difference [2, 8]: −0.11

CC(C)C[C@H](NC(=O)CNC(=O)c1cc(Cl)ccc1Cl)B1OC(=O)C(CC(=O)O)(CC(=O)O)O1 [Ixazomib citrate]
Cholesterol-free [1, 4]: −0.00597
Complete [1, 5]: 0.1018
Difference [1, 9]: 0.11
Cholesterol-free media + simvastatin (0.04 μM) [2, 15]: 0.141
Complete Media [2, 14]: 0.02787
Difference [2, 8]: −0.11

c1ccc2c(CC3=NCCN3)cccc2c1 [Naphazoline (hydrochloride)]
Difference [1, 3]: −0.26
Cholesterol-free [1, 17]: 1.189
Complete ([1]; NCI-H292 cells, complete media): 0.9279
Cholesterol-free media + simvastatin (0.04 μM) [2, 22]: 0.7495
Complete Media [2, 23]: 0.6802
Difference [2, 16]: −0.07

CC/C=C\C/C=C\C/C=C\C/C=C\C/C=C\CCCC(=O)O [Eicosapentaenoic Acid]
Difference [1, 12]: −0.10
Cholesterol-free [1, 13]: 1.072
Complete [1, 14]: 0.969
Cholesterol-free media + simvastatin (0.04 μM) [2, 15]: 1.13
Complete Media [2, 14]: 1.471
Difference [2, 11]: 0.34

CCN(CCO)CCCC(C)Nc1ccnc2cc(Cl)ccc12 (stereo not shown) [Hydroxychloroquine sulfate]
Difference ([1]; Complete minus Cholesterol-free, greater than 0 enhanced anti-cancer activity, about 0 neutral, below 0 antagonists): −0.72
Complete ([1]; NCI-H292 cells in complete media): 0.895
Cholesterol-free media + simvastatin (0.04 μM) [2, 25]: 0.9769
Complete Media [2, 10]: 1.024
Difference [2, 11]: 0.05
